# From patent US20040220148A1, “5-Membered ring heterocycles as inhibitors of leucocyte adhesion and as VLA-4 antagonists” (Aventis Pharma Deutschland GmbH, priority 1996, published 2004)
# Where a name gives a salt, the structure may show the parent alone.
# Molecular target: T1, VLA-4 integrins on human U937 cells (interaction between VCAM-1 and VLA-4) (Homo sapiens, UniProt P05556+P13612)
# T1 construct: the VLA-4 integrins, are offered in their natural form as surface molecules on human U937 cells; host or cells: U937 cells (VLA-4, endogenous); the partner hVCAM-1(1-3)-IgG came from the supernatant of transfected COS cells (ATCC CRL1651)
# Experiment: U937/VCAM-1 cell adhesion test (adhesion of U937 cells to hVCAM-1(1-3)-IgG)
# Assay type: cell-based
# Conditions: concentration leading to 50% inhibition of adhesion
# From the text: As a test method for the activity of the compounds of the formula I on the interaction between VCAM-1 and VLA-4, an assay which is specific for this interaction is used. The cellular binding components, i.e. the VLA-4 integrins, are offered in their natural form as surface molecules on human U937 cells (ATCC CRL 1593) which belong to the group of leucocytes. As specific binding components, recombinant soluble fusion proteins prepared by genetic engineering and consisting of the extracytoplasmic domains of human VCAM-1 and the constant region of a human immunoglobulin of the subclass IgG1 are used.
# Assay for the Measurement of the Adhesion of U937 Cells (ATCC CRL 1593) to hVCAM-1 (1-3)-IgG
# 1. Preparation of Human VCAM-1(1-3)-IgG and Human CD4-IgG
# A genetic construct for the expression of the extracellular domains of human VCAM-1 was employed, associated with the genetic sequence of the heavy chain of human immunoglobulin IgG1 (hinge, CH2 and CH3 regions), from Dr. Brian Seed, Massachusetts General Hospital, Boston, USA. The soluble fusion protein hVCAM-1(1-3)-IgG contained the three amino-terminal extracellular immunoglobulin-like domains of human VCAM-1 (Damle and Aruffo, Proc. Natl. Acad. Sci. USA 1991, 88, 6403). CD4-IgG (Zettlmeissl et al, DNA and Cell Biology 1990, 9, 347) served as a fusion protein for negative controls. The recombinant proteins were expressed as soluble proteins after DEAE/dextran-mediated DNA-transfection in COS cells (ATCC CRL1651) according to standard procedures (Ausubel et al., Current protocols in molecular biology, John Wiley & Sons, Inc., 1994).
# 2. Assay for Measurement of the Adhesion of U937 Cells to hVCAM-1(1-3)-IgG
# 2.1 96-well microtiter test plates (Nunc Maxisorb) were incubated at room temperature for 1 hour with 100 μl/well of a goat-anti-human IgG antibody solution (10 μg/ml in 50 mM tris, pH 9.5). After removing the antibody solution, washing was carried out once with PBS.
# 2.2 150 μl/well of a blocking buffer (1% BSA in PBS) were incubated on the plates at room temperature for 0.5 hours. After removing the blocking buffer, washing was carried out once with PBS.
# 2.3 100 μl per well of a cell culture supernatant of transfected COS cells were incubated on the plates at room temperature for 1.5 hours. The COS cells were transfected with a plasmid which codes for the three N-terminal immunoglobulin-like domains of VCAM-1, coupled to the Fc part of human IgG1 (hVCAM-1(1-3)-IgG). The content of hVCAM-1 (1-3)-IgG was about […]. After removing the culture supernatant, washing was carried out once with PBS.
# 2.4 The plates were incubated at room temperature for 20 minutes with […] of Fc receptor blocking buffer (1 mg/ml of γ-globulin, 100 mM NaCl, 100 μM MgCl2, 100 μM MnCl2, 100 μM CaCl2, 1 mg/ml BSA in 50 mM HEPES, pH 7.5). After removing the Fc receptor blocking buffer, washing was carried out once with PBS.
# 2.5 20 μl of binding buffer (100 mM NaCl, 100 μM MgCl2, 100 μM MgCl2, 100 μM CaCl2, 1 mg/ml BSA in 50 mM HEPES, pH 7.5), were initially introduced, the substances to be tested were added in 10 μl of binding buffer and the mixture was incubated for 20 minutes. As controls, antibodies against VCAM-1 (BBT, No. BBA6) and against VLA-4
# (Immunotech, No. 0764) were used.
# 2.6 U937 cells were incubated in Fc receptor blocking buffer for 20 minutes and then pipetted in at a concentration of 1×10^6/ml and in an amount of 100 μl per well ([…]).
# 2.7 The plates were slowly immersed at an angle of 45° in stop buffer (100 mM NaCl, 100 μM MgCl2, 100 μM MnCl2, 100 μM CaCl2 in 25 mM Tris, pH 7.5) and shaken off. The process was repeated.
# 2.8 50 μl/well of a dye solution (16.7 μg/ml of Hoechst dye 33258, 4% formaldehyde, 0.5% Triton X-100 in PBS) were then incubated on the plates for 15 minutes.
# 2.9 The plates were shaken off and slowly immersed at an angle of 45° in stop buffer (100 mM NaCl, 100 μM MgCl2, 100 μM MnCl2, 100 μM CaCl2 in 25 mM Tris, pH 7.5). The process was repeated. […]
# T1 sequence (P13612 34-1032): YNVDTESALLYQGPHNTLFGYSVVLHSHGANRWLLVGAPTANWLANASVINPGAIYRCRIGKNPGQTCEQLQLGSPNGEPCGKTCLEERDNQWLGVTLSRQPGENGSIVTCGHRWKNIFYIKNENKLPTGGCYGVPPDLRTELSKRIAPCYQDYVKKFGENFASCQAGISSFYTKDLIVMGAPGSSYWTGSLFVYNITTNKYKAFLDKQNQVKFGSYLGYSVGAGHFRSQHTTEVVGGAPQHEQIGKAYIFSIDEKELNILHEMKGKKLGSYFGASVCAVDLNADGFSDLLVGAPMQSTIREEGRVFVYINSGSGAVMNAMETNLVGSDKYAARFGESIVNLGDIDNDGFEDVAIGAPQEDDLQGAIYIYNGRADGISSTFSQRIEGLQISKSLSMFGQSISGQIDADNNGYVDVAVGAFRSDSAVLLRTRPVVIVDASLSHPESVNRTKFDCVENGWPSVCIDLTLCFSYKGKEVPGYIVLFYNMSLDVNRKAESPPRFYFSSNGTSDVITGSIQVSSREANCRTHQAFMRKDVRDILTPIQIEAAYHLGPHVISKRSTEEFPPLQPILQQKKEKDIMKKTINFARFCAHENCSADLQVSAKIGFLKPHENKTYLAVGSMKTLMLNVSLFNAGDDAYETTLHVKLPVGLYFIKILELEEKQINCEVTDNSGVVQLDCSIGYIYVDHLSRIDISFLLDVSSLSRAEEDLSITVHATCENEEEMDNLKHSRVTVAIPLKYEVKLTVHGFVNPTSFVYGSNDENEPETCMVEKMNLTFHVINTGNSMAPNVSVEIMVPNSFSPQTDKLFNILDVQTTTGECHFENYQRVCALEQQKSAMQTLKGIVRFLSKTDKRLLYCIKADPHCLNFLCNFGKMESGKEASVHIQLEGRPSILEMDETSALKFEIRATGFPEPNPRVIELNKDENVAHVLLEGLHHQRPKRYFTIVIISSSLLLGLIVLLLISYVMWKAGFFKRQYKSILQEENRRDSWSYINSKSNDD
# T1 sequence (P05556 21-798): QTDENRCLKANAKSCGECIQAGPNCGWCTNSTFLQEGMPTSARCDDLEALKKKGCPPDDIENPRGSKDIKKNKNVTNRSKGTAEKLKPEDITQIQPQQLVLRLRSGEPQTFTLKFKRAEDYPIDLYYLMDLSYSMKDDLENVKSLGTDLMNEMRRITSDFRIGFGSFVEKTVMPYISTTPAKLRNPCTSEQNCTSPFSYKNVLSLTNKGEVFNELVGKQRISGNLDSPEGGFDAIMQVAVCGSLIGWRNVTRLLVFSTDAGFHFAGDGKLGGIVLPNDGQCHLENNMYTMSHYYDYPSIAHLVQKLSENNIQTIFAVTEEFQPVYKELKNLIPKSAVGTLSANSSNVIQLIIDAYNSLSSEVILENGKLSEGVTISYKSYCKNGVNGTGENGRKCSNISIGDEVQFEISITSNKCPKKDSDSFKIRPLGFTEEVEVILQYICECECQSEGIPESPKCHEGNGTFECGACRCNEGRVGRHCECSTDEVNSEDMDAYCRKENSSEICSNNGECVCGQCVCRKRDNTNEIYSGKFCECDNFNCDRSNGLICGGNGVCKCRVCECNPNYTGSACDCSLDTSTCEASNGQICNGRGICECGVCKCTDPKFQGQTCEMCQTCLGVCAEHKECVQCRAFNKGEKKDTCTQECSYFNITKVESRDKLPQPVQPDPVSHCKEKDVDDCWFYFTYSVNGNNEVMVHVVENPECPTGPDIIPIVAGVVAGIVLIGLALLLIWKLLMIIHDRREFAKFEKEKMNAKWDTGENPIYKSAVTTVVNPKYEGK
compound,measurement,value
"CC1(Cc2ccc(NC(=N)N)cc2)C(=O)N(CC(=O)N[C@@H](CC(=O)O)C(=O)N[C@H](C(=O)O)c2ccccc2)C(=O)N1Cc1ccccc1 (stereo partly drawn) [Example 73, ((R,S)-4-(4-Guanidinobenzyl)-3-benzyl-4-methyl-2,5-dioxoimidazolidin-1-yl)acetyl-L-aspartyl-L-phenylglycine]",IC50,125 µM
"CC1(c2ccc(C(=N)N)cc2)C(=O)N(CC(=O)NC(CC(=O)O)c2ccccc2)C(=O)N1Cc1ccccc1 [Example 33, (R,S)-3-(((R,S)-4-(4-(Amino-imino-methyl)phenyl)-3-benzyl-4-methyl-2,5-dioxoimidazolidin-1-yl)acetylamino)-3-phenylpropionic acid hydrochloride]",IC50,45 µM
"((S)-4-(3-Guarndinopropyl)-3-benzyl-2,5-dioxoimidazolidin-1-yl)acetyl-D-aspartyl-L-phenylglycine-L-tyrosine hydrochloride [Example 39]",IC50,8 µM
